Source: US11453689B2, “3-pyrrolidine-indole derivatives as serotonergic psychedelic agents for the treatment of CNS disorders” (Mindset Pharma Inc., priority 2020, dated 2022)
Read-outs that look alike come from different tables or passages of the source.

Experiments:
human 5-HT2A receptor = human 5-HT2A receptor (Homo sapiens (Human), UniProt P28223); assay: Radioligand ([3H]-ketanserin) binding assay on human 5-HT2A receptor
Description: i. Prepare the assay buffer following the table below;
ii. Preparation of 8 doses of reference and exemplary test compounds starting from 10 mM stock solution as requested by 5-fold serial dilutions with 100%;
iii. […] a. Add 50 μl/well of 0.5% (v/v) PEI to UniFilter-96 GF/B plates. Seal the plates and incubate at 4° C. for 3 hrs; b. After incubation, wash the plates 3 times with ice-cold wash buffer (50 mM Tris, pH7.4);
iv. Preparation of assay plates: a. Dilute cell membrane with assay buffer and add 330 μl/well to 96 round deep well plates to reach a concentration of 20 μg/well; b. Prepare 8 concentrations of reference or exemplary test compounds and add 110 μl/well to 96 round deep well plates; c. Dilute [3H]-ketanserin with assay buffer to 5 nM (5× final concentration) and add 110 μl/well to 96 round deep well plates.
v. Centrifuge the plate at 1000 rpm for 30 secs and then agitate at 600 rpm, R.T. for 5 min.
vi. Seal the plates and incubate the plate at 27° C. for 90 min.
vii. Stop the incubation by vacuum filtration onto GF/B filter plates followed by 4 times washing with ice-cold wash buffer (50 mM Tris, pH7.4).
ix. Seal the filter plates and add 40 μl/well of scintillation cocktail.
x. Read the plate by using a Microbeta2 microplate counter.
For reference and exemplary test compounds, the results are expressed as % Inhibition, using the normalization equation: N=100−100×(U−C2)/(C1−C2), where U is the unknown value, C1 is the average of high controls, and C2 is the average of low controls. The IC50 is determined by fitting percentage of inhibition as a function of compound concentrations with Hill equation using XLfit.

[1] = In vivo pharmacokinetics in male C57BL/6 mice (IV and PO); conditions: mouse; for AUC(0-inf) / C0 / clearance / AUC(0-t) / half-life / MRT inf / Vd / Cmax / Tmax / bioavailability: male, C57BL/6, plasma; for AUC(0-t): read-out: AUC0-tlast; for half-life: read-out: Apparent t1/2 (converted); for MRT inf: read-out: MRT0-inf; for Vd: read-out: Vss; for bioavailability: read-out: F (bioavailability)
Description: Example 26: In Vivo Assessment of the Pharmacokinetics in Mice and Rats […]
Male C57BL/6 mice (25-30 g) from Charles River Labs were acclimatized for a minimum of 5 days prior to dosing. Body weights will be recorded on the day of dosing.
Animals dosed p.o. were deprived of food overnight and fed ˜2 h following dosing.
Formulations were administered intravenously (i.v.) via the tail vein or orally (p.o.) by gavage with disposable feeding needles.
Serial blood samples were collected via tail snip. Terminal blood samples will be collected under isoflurane anesthesia by cardiac puncture.
All blood samples were transferred into K2EDTA tubes on wet ice and centrifuged within 5 min (3200×g for 5 min at 4° C.) to obtain plasma. Plasma will be stored at −80° C. until analysis.
AB Sciex QTRAP 4000 or 6500 MS/MS system equipped with an LC system with a binary pump, a solvent degasser, a thermostatted column compartment and a multiplate autosampler. i. Analysis software: Phoenix® WinNonlin® 8.2 (Pharsight, Certara, Mountainview, Calif.) ii. Analysis methods: non-compartmental analysis, linear up/log down trapezoidal rule iii. PK parameters: C0, t1/2, AUC0-tlast. AUC0-∞, CL, Vss, MRT, tmax(po), Cmax(po), F, as appropriate • C0 concentration extrapolated to time zero following an i.v. dose • tmax time at which maximum concentration is observed • Cmax maximum observed concentration • Apparent t1/2 apparent terminal half-life • AUC0-tlast area under the concentration vs time curve from time 0 to the time of the last measurable concentration • AUC0-inf area under the concentration vs time curve from time 0 to infinity • CL systemic clearance • MRT0-inf mean residence time from time zero to infinity • Vss steady-state volume of distribution • F bioavailability=(Dose^iv*AUC^po)/(Dose^po*AUC^iv)*100

[2] = Human liver microsomes stability with NADPH; conditions: for Remaining Percentage (%) after 60 min, Human: human liver microsomes, with NADPH, 2 μM; for half-life at 2 μM / microsomal CLint at 2 μM: human, microsomes
Description: (§1) The objective of this study was to estimate in vitro metabolic stability of exemplary compounds in pooled human, male rat and male mouse liver microsomes. The concentrations of exemplary compounds in reaction systems were evaluated by LC-MS/MS for estimating the stability in pooled human, male rat and male mouse liver microsomes. The in vitro intrinsic clearances of test compounds were determined as well.
(§2) A master solution in the “Incubation Plate” containing phosphate buffer, ultra-pure H2O, MgCl2 solution and liver microsomes was made according to Table 3. The mixture was pre-warmed at 37° C. water bath for 5 minutes.
(§3) 40 μL of 10 mM NADPH solution was added to each well. The final concentration of NADPH was 1 mM. The negative control samples were prepared by replacing NADPH with 40 μL of ultra-pure H2O. Samples were prepared in duplicate. Negative controls were prepared in singlet.
(§4) The reaction was started with the addition of 4 μL of 200 μM exemplary test compounds or control compounds to each master solution to get the final concentration of 2 μM. This study was performed in duplicate.
(§5) Aliquots of 50 μL were taken from the reaction solution at 0, 15, 30, 45 and 60 minutes. The reaction solutions were stopped by the addition of 4 volumes of cold methanol with IS (100 nM alprazolam, 200 nM imipramine, 200 nM labetalol and 2 μM ketoprofen). Samples were centrifuged at 3,220 g for 40 minutes. Aliquot of 90 μL of the supernatant was mixed with 90 μL of ultra-pure H2O and then was used for LC-MS/MS analysis.
(§6) LC/MS analysis was performed for all samples from this study using a Shimadzu liquid chromatograph separation system equipped with degasser DGU-20A5R; solvent delivery unit LC-30AD; system controller SIL-30AC; column oven CTO-30A; CTC Analytics HTC PAL System. Mass spectrometric analysis was performed using an Triple Quad™ 5500 instrument.
(§7) All calculations were carried out using Microsoft Excel. Peak areas were determined from extracted ion chromatograms. The slope value, k, was determined by linear regression of the natural logarithm of the remaining percentage of the parent drug vs. incubation time curve.
(§8) Conversion of the in vitro t1/2 (min) into the in vitro intrinsic clearance (in vitro CLint, in μL/min/mg proteins) was done using the following equation (mean of duplicate determinations): […]

[3] = Mouse liver microsomes stability with NADPH; conditions: for half-life at 2 μM / microsomal CLint at 2 μM: male, mouse, microsomes; for Remaining Percentage (%) after 60 min, Mouse: mouse liver microsomes, with NADPH, 2 μM
Description: as §1, §2, §3, §4, §5, §6, §7, §8

Compound: [2H]C([2H])(c1c[nH]c2cccc(OC)c12)[C@H]1CCCN1C([2H])([2H])[2H] [Compound I-39, (R)-4-methoxy-3-((1-(methyl-d3)pyrrolidin-2-yl)methyl-d2)-1H-indole]
- IC50 (human 5-HT2A receptor): 500 to 5000 nM
- AUC(0-inf) ([1]; IV, 1 mg/kg): 1960 ± 696 ng·h/mL
- C0 ([1]; IV, 1 mg/kg): 1290 ± 782 ng/mL
- clearance ([1]; IV, 1 mg/kg): 9.25 mL/min/kg
- AUC(0-t) ([1]; IV, 1 mg/kg): 1960 ± 696 ng·h/mL
- half-life ([1]; IV, 1 mg/kg): 2.51 ± 0.366 h
- MRT inf ([1]; IV, 1 mg/kg): 2.78 ± 0.388 h
- Vd ([1]; IV, 1 mg/kg): 1.5 ± 0.397 L/kg
- AUC(0-inf) ([1]; PO, 10 mg/kg): 214 ± 49.6 ng·h/mL
- Cmax ([1]; PO, 10 mg/kg): 134 ± 14.7 ng/mL
- Tmax ([1]; PO, 10 mg/kg): 0.5 h
- AUC(0-t) ([1]; PO, 10 mg/kg): 210 ± 46.6 ng·h/mL
- half-life ([1]; PO, 10 mg/kg): 3.91 ± 1.81 h
- bioavailability ([1]; PO, 10 mg/kg): 1.09 ± 0.253%
- MRT inf ([1]; PO, 10 mg/kg): 2.3 ± 0.259 h
- AUC0-inf/Dose ([1]; IV, 1 mg/kg): 1960 ± 696 kg·ng·h/mL/mg
- AUC0-inf/Dose ([1]; PO, 10 mg/kg): 21.4 ± 4.96 kg·ng·h/mL/mg
- Cmax/Dose ([1]; PO, 10 mg/kg): 13.4 ± 1.47 kg·ng/mL/mg
- Remaining Percentage (%) after 60 min, Human [2]: 73.65%
- half-life at 2 μM [2]: 2.27 h
- microsomal CLint at 2 μM [2]: 10.2 µL/min/mg
- half-life at 2 μM [3]: 1.6 h
- microsomal CLint at 2 μM [3]: 14.4 µL/min/mg
- Remaining Percentage (%) after 60 min, Mouse [3]: 64.91%

Compound: [2H]C([2H])(c1c[nH]c2cccc(O)c12)[C@H]1CCCN1C([2H])([2H])[2H] [Compound I-44, (R)-3-((1-(methyl-d3)pyrrolidin-2-yl)methyl-d2)-1H-indol-4-ol]
- IC50 (human 5-HT2A receptor): < 500 nM
- AUC(0-inf) ([1]; IV, 1 mg/kg): 598 ± 434 ng·h/mL
- C0 ([1]; IV, 1 mg/kg): 2570 ± 2560 ng/mL
- clearance ([1]; IV, 1 mg/kg): 42.5 mL/min/kg
- AUC(0-t) ([1]; IV, 1 mg/kg): 595 ± 433 ng·h/mL
- half-life ([1]; IV, 1 mg/kg): 1.18 ± 0.205 h
- MRT inf ([1]; IV, 1 mg/kg): 0.754 ± 0.12 h
- Vd ([1]; IV, 1 mg/kg): 1.98 ± 1.58 L/kg
- AUC(0-inf) ([1]; PO, 10 mg/kg): 537 ± 274 ng·h/mL
- Cmax ([1]; PO, 10 mg/kg): 158 ± 55.4 ng/mL
- Tmax ([1]; PO, 10 mg/kg): 0.75 ± 0.433 h
- AUC(0-t) ([1]; PO, 10 mg/kg): 477 ± 260 ng·h/mL
- half-life ([1]; PO, 10 mg/kg): 2.71 ± 0.511 h
- bioavailability ([1]; PO, 10 mg/kg): 8.98 ± 4.58%
- MRT inf ([1]; PO, 10 mg/kg): 3.5 ± 0.965 h
- AUC0-inf/Dose ([1]; IV, 1 mg/kg): 598 ± 434 kg·ng·h/mL/mg
- AUC0-inf/Dose ([1]; PO, 10 mg/kg): 53.7 ± 27.4 kg·ng·h/mL/mg
- Cmax/Dose ([1]; PO, 10 mg/kg): 15.8 ± 5.54 kg·ng/mL/mg
- Remaining Percentage (%) after 60 min, Human [2]: 78.13%
- half-life at 2 μM [2]: 2.81 h
- microsomal CLint at 2 μM [2]: 8.23 µL/min/mg
- half-life at 2 μM [3]: 1.18 h
- microsomal CLint at 2 μM [3]: 19.5 µL/min/mg
- Remaining Percentage (%) after 60 min, Mouse [3]: 55.68%

Compound: [2H]C([2H])([2H])N1CCC[C@@H]1Cc1c[nH]c2cccc(O)c12 [Compound I-2, (R)-3-((1-(methyl-d3)pyrrolidin-2-yl)methyl)-1H-indol-4-ol]
- IC50 (human 5-HT2A receptor): < 500 nM
- AUC(0-inf) ([1]; IV, 1 mg/kg): 463 ± 423 ng·h/mL
- C0 ([1]; IV, 1 mg/kg): 3590 ± 4100 ng/mL
- clearance ([1]; IV, 1 mg/kg): 64.5 mL/min/kg
- AUC(0-t) ([1]; IV, 1 mg/kg): 461 ± 421 ng·h/mL
- half-life ([1]; IV, 1 mg/kg): 3.09 ± 2.79 h
- MRT inf ([1]; IV, 1 mg/kg): 0.733 ± 0.194 h
- Vd ([1]; IV, 1 mg/kg): 3.09 ± 3.22 L/kg
- AUC(0-inf) ([1]; IV, 5 mg/kg): 1410 ± 862 ng·h/mL
- C0 ([1]; IV, 5 mg/kg): 4780 ± 3570 ng/mL
- clearance ([1]; IV, 5 mg/kg): 72.8 mL/min/kg
- AUC(0-t) ([1]; IV, 5 mg/kg): 1370 ± 869 ng·h/mL
- half-life ([1]; IV, 5 mg/kg): 12.7 ± 4.24 h
- MRT inf ([1]; IV, 5 mg/kg): 3.1 ± 1.43 h
- Vd ([1]; IV, 5 mg/kg): 15.3 ± 10.5 L/kg
- AUC(0-inf) ([1]; PO, 10 mg/kg): 314 ng·h/mL
- Cmax ([1]; PO, 10 mg/kg): 117 ± 23.7 ng/mL
- Tmax ([1]; PO, 10 mg/kg): 0.25 h
- AUC(0-t) ([1]; PO, 10 mg/kg): 271 ± 30.9 ng·h/mL
- half-life ([1]; PO, 10 mg/kg): 9.31 h
- bioavailability ([1]; PO, 10 mg/kg): 6.27 ± 0.906%
- MRT inf ([1]; PO, 10 mg/kg): 7.88 h
- AUC0-inf/Dose ([1]; IV, 1 mg/kg): 463 ± 423 kg·ng·h/mL/mg
- AUC0-inf/Dose ([1]; IV, 5 mg/kg): 282 ± 172 kg·ng·h/mL/mg
- AUC0-inf/Dose ([1]; PO, 10 mg/kg): 31.4 (n = 2) h*kg*ng/mL/mg
- Cmax/Dose ([1]; PO, 10 mg/kg): 11.7 ± 2.37 kg·ng/mL/mg
- Remaining Percentage (%) after 60 min, Human [2]: 82.10%
- half-life at 2 μM [2]: 3.51 h
- microsomal CLint at 2 μM [2]: 6.57 µL/min/mg
- half-life at 2 μM [3]: 1.43 h
- microsomal CLint at 2 μM [3]: 16.2 µL/min/mg
- Remaining Percentage (%) after 60 min, Mouse [3]: 61.51%
